The structures appear in SMILES notation. pIC50: −log10 of the molar value.

For one experiment, the target named is T1, GPR6 (Homo sapiens, UniProt P46095).
T1 construct: expressed in transfected cells; host or cells: CHO cells
The experiment in a line: GPR6 antagonist functional cAMP assay (LANCE Ultra cAMP TR-FRET, CHO cells stably expressing GPR6). It counts as cell-based. An outline of the steps:
(§1)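 Compounds, at 0.1% final DMSO, acted on the cells for 45 minutes at 37 °C in the presence of the phosphodiesterase inhibitor Ro 20-1724 (150 μM). After lysis and detection, plates were shaken 1 h at room temperature and emission at 665 nm was recorded. Normalized data gave IC50 values.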
On the technique in general: cAMP levels reflect the balance of adenylyl cyclase and phosphodiesterase activity.

For the next experiment, the target named is T2, GPR3 (Homo sapiens, UniProt P46089).
T2 construct: expressed in transfected cells; host or cells: CHO cells
T2 sequence (P46089 whole entry, species assumed): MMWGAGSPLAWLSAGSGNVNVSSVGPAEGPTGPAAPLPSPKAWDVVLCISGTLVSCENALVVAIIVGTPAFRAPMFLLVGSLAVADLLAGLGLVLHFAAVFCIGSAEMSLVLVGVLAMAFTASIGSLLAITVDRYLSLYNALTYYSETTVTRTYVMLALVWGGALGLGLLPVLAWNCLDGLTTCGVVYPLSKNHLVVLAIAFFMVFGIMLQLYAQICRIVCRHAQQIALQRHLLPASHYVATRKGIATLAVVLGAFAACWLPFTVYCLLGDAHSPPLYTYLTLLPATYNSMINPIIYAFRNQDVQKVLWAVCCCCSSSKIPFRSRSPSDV
The experiment in a line: GPR3 antagonist functional cAMP assay (LANCE Ultra cAMP TR-FRET, CHO cells stably expressing GPR3). It counts as cell-based. The method, boiled down: as §1

The mark [1] stands for this setting: CHO cells stably expressing GPR6, cAMP assay (Example 24).
Where [2] appears, read: CHO cells stably expressing GPR3, cAMP assay (Example 24).

T1 sequence (P46095 whole entry): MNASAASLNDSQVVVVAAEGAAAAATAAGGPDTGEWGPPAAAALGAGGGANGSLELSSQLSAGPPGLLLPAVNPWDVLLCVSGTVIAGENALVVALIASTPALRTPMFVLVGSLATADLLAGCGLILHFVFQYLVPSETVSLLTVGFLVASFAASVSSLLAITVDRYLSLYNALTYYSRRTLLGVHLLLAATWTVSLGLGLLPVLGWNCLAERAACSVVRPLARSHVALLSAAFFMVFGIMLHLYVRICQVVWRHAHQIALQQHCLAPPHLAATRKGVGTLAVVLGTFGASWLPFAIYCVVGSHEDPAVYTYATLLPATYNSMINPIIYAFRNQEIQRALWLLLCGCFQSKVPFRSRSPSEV

The term pIC50 denotes the negative decadic logarithm of the IC50, by convention in mol/L. Higher therefore signals a small IC50. As for `CC(C)(O)C(C)(O)c1cc2nc(-c3cnn(C(F)F)c3)c(N3CCN(Cc4ccccc4F)CC3)nc2cn1` (single isomer, unassigned) [Compound 709], the pIC50 against GPR6 (procedure of Example 24) was 6.00 to 7.00; against GPR3 (procedure of Example 24), 4.52 to 6.00.

In the case of `CC(=O)N1CCc2nc(N3CCC(Oc4cccc(F)c4F)CC3)c(-c3cnn(C)c3)nc2C1` [Compound 423, 1-{2-[4-(2,3-difluorophenoxy)piperidin-1-yl]-3-(1-methyl-1H-pyrazol-4-yl)-5H,6H,7H,8H-pyrido[3,4-b]pyrazin-6-yl}ethan-1-one], the pIC50 on GPR6 (setting [1]) and against GPR3 (setting [2]) was 4.52 to 6.00 in each case.

As for `CCn1cc(-c2nc3cnc(C(O)C(C)(C)O)cc3nc2N2CCN(Cc3ccc(F)cc3F)CC2)cn1` (stereo not shown) [Compound 270, 1-(2-{4-[(2,4-difluorophenyl)methyl]piperazin-1-yl}-3-(1-ethyl-1H-pyrazol-4-yl)pyrido[3,4-b]pyrazin-7-yl)-2-methylpropane-1,2-diol], the pIC50 on GPR6 (procedure of Example 24) was 6.00 to 7.00; on GPR3 (procedure of Example 24), 4.52 to 6.00.

For the compound `CC(C)(O)Cc1cc2nc(N3CCC(Oc4ccc(F)cc4F)CC3)c(-c3cnn(C4CC4)c3)nc2cn1` [Compound 705, 1-{3-(1-cyclopropyl-4-pyrazolyl)-2-[4-(2,4-difluorophenoxy)-1-piperidyl]-1,4,6-triaza-7-naphthyl}-2-methyl-2-propanol], the values for the pIC50 against GPR6 (procedure of Example 24) and against GPR3 (procedure of Example 24) were 6.00 to 7.00 and 4.52 to 6.00, respectively.

As for `CCn1cc(-c2nc3cc(C(O)C(C)(C)O)ncc3nc2N2CCC(Oc3ccc(F)cc3F)CC2)cn1` (single isomer, unassigned) [Compound 588], the pIC50 against GPR6 (CHO cells stably expressing GPR6, cAMP assay) was over 7.00; against GPR3 (CHO cells stably expressing GPR3, cAMP assay) it was 6.00 to 7.00.

In the case of `Cn1cc(-c2nc3c(nc2N2CCC(Oc4ccc(F)cc4F)CC2)CC2COCC(=O)N2C3)cn1` (stereo not shown) [Compound 488, 6-[4-(2,4-difluorophenoxy)piperidin-1-yl]-5-(1-methyl-1H-pyrazol-4-yl)-12-oxa-1,4,7-triazatricyclo[8.4.0.0^3,8]tet radeca-3(8),4,6-trien-14-one], the pIC50 against GPR6 (setting [1]) is 6.00 to 7.00; against GPR3 (setting [2]), 4.52 to 6.00.

Consider `CC(=O)N1CCc2nc(N3CCC(Oc4ccc(F)cc4F)CC3)c(-c3cncc(N)n3)nc2C1` [Compound 465, 1-[3-(6-aminopyrazin-2-yl)-2-[4-(2,4-difluorophenoxy)piperidin-1-yl]-5H,6H,7H,8H-pyrido[3,4-b]pyrazin-6-yl]ethan-1-one], for which the pIC50 at GPR6 (setting [1]) was 6.00 to 7.00; against GPR3 (setting [2]) it was 4.52 to 6.00.

With `CC(=O)N1CCc2nc(N3CCC(Oc4ccc(F)cc4F)CC3)c(-c3cncc(O)c3)nc2C1` [Compound 158, 1-{2-[4-(2,4-difluorophenoxy)piperidin-1-yl]-3-(5-hydroxypyridin-3-yl)-5H,6H,7H,8H-pyrido[3,4-b]pyrazin-6-yl}ethan-1-one], the pIC50 against GPR6 (setting [1]) and at GPR3 (setting [2]) was 4.52 to 6.00 in each case.

As to `CCn1cc(-c2nc3c(nc2N2CCC(Oc4ccc(F)cc4F)CC2)CCN(C[C@H](O)CO)C3)cn1` [Compound 305, (2S)-3-{2-[4-(2,4-difluorophenoxy)piperidin-1-yl]-3-(1-ethyl-1H-pyrazol-4-yl)-5H,6H,7H,8H-pyrido[3,4-b]pyrazin-6-yl}propane-1,2-diol], the values for the pIC50 against GPR6 (procedure of Example 24) and against GPR3 (procedure of Example 24) were 6.00 to 7.00 and 4.52 to 6.00, respectively.

`CC(=O)N1CCc2nc(N3CCN(C(C)c4ccc(F)cc4F)CC3)c(-c3cnn(C)c3)nc2C1` (stereo not shown) [Compound 729, 1-(2-{4-[1-(2,4-difluorophenyl)ethyl]-1-piperazinyl}-3-(1-methyl-4-pyrazolyl)-5,6,7,8-tetrahydro-1,4,6-triaza-6-naphthyl)-1-ethanone]: the pIC50 against GPR6 (procedure of Example 24) and at GPR3 (procedure of Example 24) was 4.52 to 6.00 throughout.

Take `CC(=O)N1CCc2nc(N3CCN(Cc4ccc(OC(F)F)cc4F)CC3)c(-c3cnn(C)c3)nc2C1` [Compound 358, 1-[2-(4-{[4-(difluoromethoxy)-2-fluorophenyl]methyl}piperazin-1-yl)-3-(1-methyl-1H-pyrazol-4-yl)-5H,6H,7H,8H-pyrido[3,4-b]pyrazin-6-yl]ethan-1-one]: the pIC50 at GPR6 (procedure of Example 24) and against GPR3 (procedure of Example 24) was 4.52 to 6.00 in each case.

The record behind these values is US20260042755A1, “GPR6 INVERSE AGONISTS” (MapLight Therapeutics, Inc., priority 2022, published 2026).
